# Data from publication PMC11439681, “The identification of potent dual-target monopolar spindle 1 (MPS1) and histone deacetylase 8 (HDAC8) inhibitors through pharmacophore modeling, molecular docking, molecular dynamics simulations, and biological evaluation” (Frontiers in Pharmacology, 2024).
# Assays:
# Ace-K62 of PKM2 = assay: Gene expression analysis of Ace-K62 of PKM2 in HepG2 cells; type: cell-based, human; conditions: 20 h, 0.25, 1 and 5 μM
# Description: Total RNA was extracted after the indicated treatments using the RNeasy Mini Kit (cat. no. 74106; QIAGEN, Hilden, Germany) following the manufacturer’s protocol. The concentration of RNA was measured on a plate reader, and then the extracted RNA was converted to cDNA using a High-Capacity RNA-to-cDNA kit from Applied Biosystems (Thermo Fisher Scientific, Inc.). Quantitative real-time polymerase chain reaction was performed in triplicate in a 96-well optical PCR plate using a QuantStudio Real-Time PCR System. Gene expression levels were evaluated using the comparative CT method. Graphical representations of the data were generated by GraphPad Prism 8.
# Previous studies indicate that MPS1 inhibitor exerts its antitumor effects by downregulating the levels of phosphorylated histone H3 ([Naud et al., 2013]), while HDAC8 inhibitor achieves its antitumor activity by upregulating lysine residue 62 acetylation (Ace-K62) levels of pyruvate kinase M2 (PKM2) ([Zhang et al., 2020]). The gene expression of P-histone H3 and Ace-K62 was detected in HepG2 cells with the treatment of MPH-5 for 20 h (at the concentration of 0, 0.25, 1, and 5 μM, respectively). […] As the concentration of MPH-5 increases, the inhibitory effect on P-histone H3 and the promotional effect on Ace-K62 become more pronounced.
# ALK = target: T1, ALK (Homo sapiens, UniProt Q9UM73); assay: In vitro selectivity assay; type: biochemical; conditions: selectivity panel
# T1 construct: ICE Bioscience Inc. (assay service)
# Description: (§1) The inhibitory effects of compound MPH-5 on a panel of 68 kinases and other histone deacetylases were evaluated to assess the selectivity profile of MPH-5. This experiment was conducted by ICE Bioscience Inc. (Beijing, China).
# BLK = target: T2, BLK (Homo sapiens, UniProt P51451); assay: In vitro selectivity assay; type: biochemical; conditions: selectivity panel
# T2 construct: ICE Bioscience Inc. (assay service)
# T2 sequence (P51451 whole entry): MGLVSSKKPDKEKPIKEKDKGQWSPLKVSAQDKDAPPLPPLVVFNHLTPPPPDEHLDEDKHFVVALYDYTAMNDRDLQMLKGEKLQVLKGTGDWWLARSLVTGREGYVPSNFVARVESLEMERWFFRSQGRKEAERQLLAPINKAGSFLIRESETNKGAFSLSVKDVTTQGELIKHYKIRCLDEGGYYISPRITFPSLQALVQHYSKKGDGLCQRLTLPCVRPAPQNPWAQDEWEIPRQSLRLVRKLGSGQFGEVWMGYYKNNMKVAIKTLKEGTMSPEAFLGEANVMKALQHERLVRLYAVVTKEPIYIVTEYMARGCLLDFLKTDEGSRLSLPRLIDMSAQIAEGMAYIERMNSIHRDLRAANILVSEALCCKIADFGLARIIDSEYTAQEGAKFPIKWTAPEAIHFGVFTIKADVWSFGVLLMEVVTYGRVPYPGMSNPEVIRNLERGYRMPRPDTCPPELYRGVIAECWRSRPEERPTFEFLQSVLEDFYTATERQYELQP
# Description: as §1
# BTK = target: T3, BTK (Homo sapiens, UniProt Q06187); assay: In vitro selectivity assay; type: biochemical; conditions: selectivity panel
# T3 construct: ICE Bioscience Inc. (assay service)
# Description: as §1
# DDR2 = target: T4, DDR2 (Homo sapiens, UniProt Q16832); assay: In vitro selectivity assay; type: biochemical; conditions: selectivity panel
# T4 construct: ICE Bioscience Inc. (assay service)
# Description: as §1
# EPHA5 = target: T5, EPHA5 (Homo sapiens, UniProt P54756); assay: In vitro selectivity assay; type: biochemical; conditions: selectivity panel
# T5 construct: ICE Bioscience Inc. (assay service)
# Description: as §1
# EPHA8 = target: T6, EPHA8 (Homo sapiens, UniProt P29322); assay: In vitro selectivity assay; type: biochemical; conditions: selectivity panel
# T6 construct: ICE Bioscience Inc. (assay service)
# Description: as §1
# EPHB1 = target: T7, EPHB1 (Homo sapiens, UniProt P54762); assay: In vitro selectivity assay; type: biochemical; conditions: selectivity panel
# T7 construct: ICE Bioscience Inc. (assay service)
# Description: as §1
# EPHB4 = EPHB4 (Homo sapiens, UniProt P54760); assay: In vitro selectivity assay; type: biochemical; conditions: selectivity panel
# Description: as §1
# ERBB2 = ERBB2 (Homo sapiens, UniProt P04626); assay: In vitro selectivity assay; type: biochemical; conditions: selectivity panel
# Chain of ERBB2 (P04626 23-1255): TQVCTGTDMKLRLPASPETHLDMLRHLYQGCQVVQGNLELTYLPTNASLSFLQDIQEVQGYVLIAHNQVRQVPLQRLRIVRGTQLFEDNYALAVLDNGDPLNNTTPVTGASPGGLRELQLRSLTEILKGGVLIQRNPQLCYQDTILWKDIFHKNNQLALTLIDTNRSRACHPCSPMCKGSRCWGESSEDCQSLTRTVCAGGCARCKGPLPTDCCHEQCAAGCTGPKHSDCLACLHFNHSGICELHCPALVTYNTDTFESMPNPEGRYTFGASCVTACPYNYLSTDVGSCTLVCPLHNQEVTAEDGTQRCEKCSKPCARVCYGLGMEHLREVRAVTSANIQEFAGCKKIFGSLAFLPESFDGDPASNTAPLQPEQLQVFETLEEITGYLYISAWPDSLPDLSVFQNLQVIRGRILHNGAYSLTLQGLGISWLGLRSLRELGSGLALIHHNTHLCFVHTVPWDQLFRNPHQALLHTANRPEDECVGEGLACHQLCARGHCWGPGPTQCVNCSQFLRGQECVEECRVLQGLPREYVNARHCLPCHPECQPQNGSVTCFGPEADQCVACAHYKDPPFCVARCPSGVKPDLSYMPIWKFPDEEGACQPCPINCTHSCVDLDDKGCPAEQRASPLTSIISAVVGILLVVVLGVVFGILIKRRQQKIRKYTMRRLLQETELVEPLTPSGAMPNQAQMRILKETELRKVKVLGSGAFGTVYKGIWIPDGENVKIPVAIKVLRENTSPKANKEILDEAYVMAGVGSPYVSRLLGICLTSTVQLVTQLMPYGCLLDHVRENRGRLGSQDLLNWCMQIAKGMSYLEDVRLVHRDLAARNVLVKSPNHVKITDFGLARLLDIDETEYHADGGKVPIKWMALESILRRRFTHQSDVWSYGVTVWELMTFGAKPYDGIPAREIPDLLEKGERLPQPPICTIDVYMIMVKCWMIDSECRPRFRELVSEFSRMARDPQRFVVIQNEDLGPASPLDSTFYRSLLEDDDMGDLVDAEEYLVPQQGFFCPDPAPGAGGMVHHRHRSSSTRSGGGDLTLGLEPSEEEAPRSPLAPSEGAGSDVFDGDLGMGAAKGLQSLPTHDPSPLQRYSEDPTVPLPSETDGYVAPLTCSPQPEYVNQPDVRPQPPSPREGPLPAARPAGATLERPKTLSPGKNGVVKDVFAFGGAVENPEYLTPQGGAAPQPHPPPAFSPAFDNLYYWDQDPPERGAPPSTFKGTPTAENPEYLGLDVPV
# Description: as §1
# FGFR1 = FGFR1 (Homo sapiens, UniProt P11362); assay: In vitro selectivity assay; type: biochemical; conditions: selectivity panel
# Description: as §1
# FGR = FGR (Homo sapiens, UniProt P09769); assay: In vitro selectivity assay; type: biochemical; conditions: selectivity panel
# Description: as §1
# FYN = FYN (Homo sapiens, UniProt P06241); assay: In vitro selectivity assay; type: biochemical; conditions: selectivity panel
# Description: as §1
# HDAC5 = target: T8, HDAC5 (Homo sapiens, UniProt Q9UQL6); assay: In vitro selectivity assay; type: biochemical; conditions: selectivity panel
# T8 construct: ICE Bioscience Inc. (contract assay provider)
# Description: as §1
# HDAC6 = target: T9, HDAC6 (Homo sapiens, UniProt Q9UBN7); assay: In vitro selectivity assay; type: biochemical; conditions: selectivity panel
# T9 construct: ICE Bioscience Inc. (Beijing, China), the contract lab that ran the assay
# Description: as §1
# IGF1R = IGF1R (Homo sapiens, UniProt P08069); assay: In vitro selectivity assay; type: biochemical; conditions: selectivity panel
# Description: as §1
# INSR = INSR (Homo sapiens, UniProt P06213); assay: In vitro selectivity assay; type: biochemical; conditions: selectivity panel
# Description: as §1
# INSRR = INSRR (Homo sapiens, UniProt P14616); assay: In vitro selectivity assay; type: biochemical; conditions: selectivity panel
# Description: as §1
# KIT = target: T10, KIT (Homo sapiens, UniProt P10721); assay: In vitro selectivity assay; type: biochemical; conditions: selectivity panel
# T10 construct: ICE Bioscience Inc. (contract assay provider)
# Description: as §1
# NTRK1 = target: T11, NTRK1 (Homo sapiens, UniProt P04629); assay: In vitro selectivity assay; type: biochemical; conditions: selectivity panel
# T11 construct: ICE Bioscience Inc. (contract assay provider)
# Description: as §1
# PDGFRA = target: T12, PDGFRA (Homo sapiens, UniProt P16234); assay: In vitro selectivity assay; type: biochemical; conditions: selectivity panel
# T12 construct: ICE Bioscience Inc. (contract assay provider)
# Description: as §1
# PDGFRB = target: T13, PDGFRB (Homo sapiens, UniProt P09619); assay: In vitro selectivity assay; type: biochemical; conditions: selectivity panel
# T13 construct: ICE Bioscience Inc. (contract assay provider)
# Description: as §1
# PIM1 = PIM1 (Homo sapiens, UniProt P11309); assay: In vitro selectivity assay; type: biochemical; conditions: selectivity panel
# Chain of PIM1 (P11309 whole entry): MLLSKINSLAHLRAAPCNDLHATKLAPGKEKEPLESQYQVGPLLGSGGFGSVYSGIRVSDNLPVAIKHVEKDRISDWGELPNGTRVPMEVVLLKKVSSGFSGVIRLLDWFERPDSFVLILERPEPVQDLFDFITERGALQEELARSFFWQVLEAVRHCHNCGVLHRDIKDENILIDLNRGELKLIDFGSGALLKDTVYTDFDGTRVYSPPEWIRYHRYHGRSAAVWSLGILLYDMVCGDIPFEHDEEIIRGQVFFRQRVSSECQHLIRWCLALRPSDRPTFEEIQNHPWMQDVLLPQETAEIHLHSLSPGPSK
# Description: as §1
# PTK2B = target: T14, PTK2B (Homo sapiens, UniProt Q14289); assay: In vitro selectivity assay; type: biochemical; conditions: selectivity panel
# T14 construct: ICE Bioscience Inc. (contract assay provider)
# Description: as §1
# ROS1 = ROS1 (Homo sapiens, UniProt P08922); assay: In vitro selectivity assay; type: biochemical; conditions: selectivity panel
# Chain of ROS1 (P08922 28-2347): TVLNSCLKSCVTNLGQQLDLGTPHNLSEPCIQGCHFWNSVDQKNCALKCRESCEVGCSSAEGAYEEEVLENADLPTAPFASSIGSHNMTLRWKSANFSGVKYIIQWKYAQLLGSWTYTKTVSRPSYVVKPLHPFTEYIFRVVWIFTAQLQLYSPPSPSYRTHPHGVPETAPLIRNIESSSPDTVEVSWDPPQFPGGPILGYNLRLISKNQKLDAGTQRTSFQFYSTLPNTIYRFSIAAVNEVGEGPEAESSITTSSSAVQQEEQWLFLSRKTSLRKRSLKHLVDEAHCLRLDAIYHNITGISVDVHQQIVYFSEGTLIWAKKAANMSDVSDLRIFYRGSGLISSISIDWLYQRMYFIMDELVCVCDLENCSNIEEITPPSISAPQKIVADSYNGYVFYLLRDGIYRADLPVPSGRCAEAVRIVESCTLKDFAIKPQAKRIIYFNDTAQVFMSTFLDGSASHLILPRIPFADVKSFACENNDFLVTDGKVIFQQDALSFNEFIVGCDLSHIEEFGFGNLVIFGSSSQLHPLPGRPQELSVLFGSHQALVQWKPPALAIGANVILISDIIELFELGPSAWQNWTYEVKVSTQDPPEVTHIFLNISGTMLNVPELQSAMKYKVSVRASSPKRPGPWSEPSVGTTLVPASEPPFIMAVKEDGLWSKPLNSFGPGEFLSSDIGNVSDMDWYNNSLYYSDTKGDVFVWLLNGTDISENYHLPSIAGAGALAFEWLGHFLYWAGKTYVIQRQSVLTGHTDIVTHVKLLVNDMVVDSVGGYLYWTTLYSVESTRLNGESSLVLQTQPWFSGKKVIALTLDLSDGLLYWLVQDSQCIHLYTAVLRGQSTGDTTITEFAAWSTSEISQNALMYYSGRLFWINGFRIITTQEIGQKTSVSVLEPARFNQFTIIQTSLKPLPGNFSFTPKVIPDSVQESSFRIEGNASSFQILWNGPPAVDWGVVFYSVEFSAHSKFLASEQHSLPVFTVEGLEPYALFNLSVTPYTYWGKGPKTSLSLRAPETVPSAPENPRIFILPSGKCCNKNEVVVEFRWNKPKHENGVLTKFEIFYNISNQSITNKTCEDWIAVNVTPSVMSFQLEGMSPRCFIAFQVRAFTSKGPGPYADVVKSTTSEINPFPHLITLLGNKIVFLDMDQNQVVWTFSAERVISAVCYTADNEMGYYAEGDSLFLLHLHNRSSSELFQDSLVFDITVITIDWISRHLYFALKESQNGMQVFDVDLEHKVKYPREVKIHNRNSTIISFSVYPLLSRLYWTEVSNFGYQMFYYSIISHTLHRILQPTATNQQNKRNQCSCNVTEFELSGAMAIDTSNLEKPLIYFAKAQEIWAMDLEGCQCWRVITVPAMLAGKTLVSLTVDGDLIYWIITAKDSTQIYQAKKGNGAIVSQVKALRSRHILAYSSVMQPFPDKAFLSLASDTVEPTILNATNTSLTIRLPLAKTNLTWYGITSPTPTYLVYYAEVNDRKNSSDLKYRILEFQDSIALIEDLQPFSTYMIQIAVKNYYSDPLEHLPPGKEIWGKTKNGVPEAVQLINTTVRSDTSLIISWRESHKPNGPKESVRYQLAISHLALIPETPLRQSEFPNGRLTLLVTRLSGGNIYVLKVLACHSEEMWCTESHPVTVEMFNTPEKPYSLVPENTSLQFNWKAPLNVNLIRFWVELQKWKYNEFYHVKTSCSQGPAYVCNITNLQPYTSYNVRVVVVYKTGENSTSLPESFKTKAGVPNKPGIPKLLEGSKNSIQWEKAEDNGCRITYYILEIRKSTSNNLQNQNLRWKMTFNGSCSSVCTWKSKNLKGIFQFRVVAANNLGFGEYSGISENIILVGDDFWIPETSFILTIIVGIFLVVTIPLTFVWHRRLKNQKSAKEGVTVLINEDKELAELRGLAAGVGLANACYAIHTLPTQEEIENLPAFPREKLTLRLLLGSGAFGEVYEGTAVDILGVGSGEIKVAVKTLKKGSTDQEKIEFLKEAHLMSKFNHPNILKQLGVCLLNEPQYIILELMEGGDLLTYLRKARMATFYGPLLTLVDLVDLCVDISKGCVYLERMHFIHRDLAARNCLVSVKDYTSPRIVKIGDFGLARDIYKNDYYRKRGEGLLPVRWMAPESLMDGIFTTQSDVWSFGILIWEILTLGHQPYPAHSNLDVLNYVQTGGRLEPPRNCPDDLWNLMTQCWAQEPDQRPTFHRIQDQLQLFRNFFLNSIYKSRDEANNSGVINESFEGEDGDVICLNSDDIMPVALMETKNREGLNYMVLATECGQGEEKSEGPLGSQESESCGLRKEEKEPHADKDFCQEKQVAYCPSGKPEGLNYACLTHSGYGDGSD
# Description: as §1
# TYRO3 = TYRO3 (Homo sapiens, UniProt Q06418); assay: In vitro selectivity assay; type: biochemical; conditions: selectivity panel
# Description: as §1
# YES1 = YES1 (Homo sapiens, UniProt P07947); assay: In vitro selectivity assay; type: biochemical; conditions: selectivity panel
# Chain of YES1 (P07947 whole entry): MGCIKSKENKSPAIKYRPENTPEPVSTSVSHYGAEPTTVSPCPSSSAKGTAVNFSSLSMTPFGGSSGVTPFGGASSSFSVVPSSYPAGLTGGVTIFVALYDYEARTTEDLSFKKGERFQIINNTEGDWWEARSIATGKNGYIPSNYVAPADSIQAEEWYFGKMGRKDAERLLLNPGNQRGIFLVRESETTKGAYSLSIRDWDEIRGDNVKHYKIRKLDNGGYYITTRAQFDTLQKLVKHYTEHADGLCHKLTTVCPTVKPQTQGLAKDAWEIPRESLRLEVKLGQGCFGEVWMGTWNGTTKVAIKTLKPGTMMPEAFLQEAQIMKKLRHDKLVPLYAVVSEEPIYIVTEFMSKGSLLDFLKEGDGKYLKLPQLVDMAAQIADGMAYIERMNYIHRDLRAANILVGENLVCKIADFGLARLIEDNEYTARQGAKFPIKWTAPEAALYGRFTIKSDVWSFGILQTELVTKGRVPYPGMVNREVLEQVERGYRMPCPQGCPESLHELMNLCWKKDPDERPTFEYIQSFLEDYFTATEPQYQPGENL
# Description: as §1
# ZAP70 = ZAP70 (Homo sapiens, UniProt P43403); assay: In vitro selectivity assay; type: biochemical; conditions: selectivity panel
# Description: as §1
smiles,measurement,setting,value
Cn1cc(-c2cc3cnc(Nc4ccc(-c5cncn5/C=C/C(=O)NO)cc4Cl)cc3n2C(=O)OC(C)(C)C)cn1 [MPH-5],K62 acetylation levels (Ace-K62 of PKM2),Ace-K62 of PKM2,dose-dependent regulation
same,IC50,ALK,> 10 µM
same,IC50,BLK,> 10 µM
same,IC50,BTK,> 10 µM
same,IC50,DDR2,> 10 µM
same,IC50,EPHA5,> 10 µM
same,IC50,EPHA8,> 10 µM
same,IC50,EPHB1,> 10 µM
same,IC50,EPHB4,> 10 µM
same,IC50,ERBB2,> 10 µM
same,IC50,FGFR1,> 10 µM
same,IC50,FGR,> 10 µM
same,IC50,FYN,> 10 µM
same,IC50,HDAC5,> 10 µM
same,IC50,HDAC6,> 10 µM
same,IC50,IGF1R,> 10 µM
same,IC50,INSR,> 10 µM
same,IC50,INSRR,> 10 µM
same,IC50,KIT,> 10 µM
same,IC50,NTRK1,> 10 µM
same,IC50,PDGFRA,> 10 µM
same,IC50,PDGFRB,> 10 µM
same,IC50,PIM1,> 10 µM
same,IC50,PTK2B,> 10 µM
same,IC50,ROS1,> 10 µM
same,IC50,TYRO3,> 10 µM
same,IC50,YES1,> 10 µM
same,IC50,ZAP70,> 10 µM
